According to patent publication US11707557B2, “Compositions and devices incorporating water-insoluble therapeutic agents and methods of the use thereof” (COOK MEDICAL TECHNOLOGIES LLC, priority 2014, dated 2023):
Values after ≈ are worked out from the molar mass of the structure shown.

Key:
[1] = physchem
Experimental: (§1) PBS (EGCG) or water (tannic acid) was added and the final solution filtered through a 0.22 micron filter to remove any particulates. The solutions were analyzed for drug concentration using HPLC.
(§2) PBS (EGCG) or water (tannic acid) was added and the final solution filtered through a 0.22 micron filter to remove particulates. The solution was then analyzed for drug concentration using absorbance spectroscopy at 450 nm.
(§3) PBS (EGCG) or water (tannic acid) was added and the final solution was filtered through a 0.22 micron filter to remove any particulates and the solution was analyzed for drug concentration using HPLC.
(§4) PBS (EGCG) or water (tannic acid) was added and the final solution filtered through a 0.22 micron filter to remove any particulates and the solution was analyzed for drug concentration using HPLC.
(§5) PBS (EGCG) or water (Tannic acid) was added and the final solution was filtered through a 0.22 um filter to remove any particulates and the solution was analyzed for drug concentration using HPLC.
(§6) Method: drug and EGCG or tannic acid were dried down from acetonitrile (or methanol for tannic acid) solutions at various drug to EGCG or tannic acid ratios. PBS (EGCG) or water (Tannic acid pH adjusted to 7) was added and the final solution was filtered through a 0.22 um filter to remove any particulates and the solution was analyzed for drug concentration using HPLC methods.

[2] = test system: Caco2 cells; assay: Transport of curcumin through Caco2 cells (transwell); assay type: in vitro ADME, human; conditions: 3 hours
Text: Caco2 cells are continuous cells of human epithelial colorectal adenocarcinoma cells. They contain drug efflux proteins and may be used in the same way that MDCK-MDR cells are, i.e. to measure drug accumulation in cells that have the ability to efflux drugs.
Caco2 cells (ATCC, VA, USA) are proliferating gut epithelial cells used throughout the pharmaceutical sciences as a model of oral drug availability. These cells may be grown in cell culture on membranes where they align with an apical external surface (equivalent to the gut lumen) and a basolateral lower surface that is equivalent to the cell side adjacent to the blood capillaries. When an EGCG curcumin solution was placed in the upper portion of a transwell containing these cells on a membrane for three hours, large amounts of curcumin either passed through or accumulated within the caco2 cells.
Caco2 cells were seeded onto 0.3 um transwell membranes and left to grow to confluence for 3 days. A conductivity electrode measured the Transcellular electrical resistance value over the next few days and when it had reached […] (tight junctions established) the experiment began. A solution of curcumin (250 microgram per ml) in EGCG (25 mg per ml) in Hanks buffer pH 7.4. was added to the top well for 3 hours. […] All solutions were then analyzed for curcumin content using uv-vis absorbance spectroscopy at 430 nm.

[3] = test system: pig skin
Experimental: Various gallate-containing drug formulations were prepared and applied to ex vivo pig skin samples. Fresh pig skin was obtained from a local butcher, processed within three hours and then frozen. For experiments, the skin was slowly thawed, excess fat removed from the base, and cut into 1×2 cm squares. These squares were mounted and clamped on Franz diffusion cells, which kept the tissue moist and isolated and exposed a 6 mm diameter of the upper skin surface for the application of a drug loaded formulation. Skin samples were then frozen and later cryosectioned in 50 μm slices. The drug in the slices was extracted and measured by HPLC or radioactive doping methods. A drug depth profile was then established for each drug.
1. Formulations containing a drug and a gallate. The drugs were dissolved in ethanol at various concentrations along with either EGCG or TA (500 mg/mL). Each solution was pipetted into 6×5 mm diameter aluminum cups (approximately 3 mm in height) by filling and allowing the ethanol to evaporate at 50° C. until all the solution was used up (80 mg per cup).
2. Formulations containing a drug, propylene glycol (“PG”) and a gallate. 300 mg of propylene glycol was mixed with 200 mg of EGCG or TA until dissolved. Various amounts of drug were added to this mixture and dissolved. 80 mg of the resulting viscous solution was weighed into 6×5 mm aluminum cups.
3. Control Formulations. Control formulations were prepared using Glaxal base and Plogel. Glaxal base is a cream used by compounding pharmacists to manufacture topical formulations of drugs. Plogel is an alternative used for dermal formulations. […] Drug was added to a known weight of Glaxal or Plogel and levigated to produce a standard drug dispersion. These formulations were prepared the evening before the experiment. For some drugs, radioactive drug (where available) was also added as a doping additive to facilitate quantitation in tissues.
Eutectics: In some cases, gallate containing compounds and drugs were formulated in eutectic mixtures. These included a 60:40 (% w/w) mixture of menthol with ibuprofen. These agents acted as a carrier for retinoic acid, which was then dissolved in this liquid. The 3-drug eutectic/solution was then blended into the CMC/poloxamer emulsion containing EGCG (2.5%). […] The emulsion was stabilized with poloxamer.
Example 29. Pig skin studies. Aluminum cups containing drug formulations were inverted on top of the pig skin in the Franz diffusion cell so that the formulation contents were in contact with the skin. […]
Analysis. […] The amount of drug in each group of skin sections was then determined using HPLC methods, or by radioactivity counting on a liquid scintillation counter. The amount of drug in each group of skin sections was expressed as μg/g or mg/g of tissue.

[4] = Drug in EGCG or tannic acid films (optical microscopy, DSC); assay type: physicochemical
Experimental: Thin films of drugs were cast in either EGCG or tannic acid from ethanol solutions. Drugs in either EGCG or tannic acid were dissolved in ethanol at a final total concentration of 20% w/v and spot pipetted in repeated 10 microliter volumes and allowed to dry between spotting. This allowed a thin film to accumulate and dry. Some solutions contained either glycerol or polyethylene glycol 300 at 10% or 20% w/w to EGCG or tannic acid. The films were allowed to dry and examined by optical microscopy for drug precipitation. Films were allow analyzed by differential scanning calorimetry (DSC) for identify drug crystals.

[5] = 24 h
Experimental: as §1, §2, §3, §4, §5, §6

[6] = Drug concentrations obtained using EGCG at 50 mg per ml (microscopic check for particulates); assay type: physicochemical
Experimental: EGCG at 50 mg/ml and drug at approximately 250 micrograms per ml were dissolved in the listed solvent and dried down in a test tube under nitrogen. 1 ml of water was added, followed by vortexing. The solutions were examined for particulate matter under a microscope. If no particulates were present, the process was repeated with a higher drug amount. All the tested drugs remained in solution at the listed concentrations except for nystatin and hesperidin.

[7] = Drug release from injectable PG:gallate pastes (60:40) into PBS; assay type: physicochemical; conditions: 60:40 PG:EGCG or PG:tannic acid, 2% w/w drug, PBS pH 7.4, 37° C.
Experimental: Methods: 60:40% w/w PG:EGCG or PG:tannic acid was used in these studies. 588 mg of propylene glycol was weighed into a 20 mL glass vials and 392 of EGCG or tannic acid was added followed by vortexing to distribute and dissolve the gallates. The vials were warmed to 60° C. and vortexed until all the contents were in solution. At this time 20 mg of drug was added (2% w/w) and vortexed until in solution. The following drugs were used: paclitaxel, docetaxel, retinoic acid, amphotericin B, and curcumin. 100 mg of each paste was weighed into the base of a 15 mL glass test tube and 10 mL of phosphate buffered saline was added at pH 7.4 and the tubes were incubated at 37° C. for certain times. All 10 mL of the PBS release media was removed and 1 mL analyzed by HPLC for drug content. 10 mL of fresh PBS was then added to all tubes

COc1cc(/C=C/C(=O)CC(=O)/C=C/c2ccc(O)c(OC)c2)ccc1O [curcumin]
solubility ([1]; aqueous with cosolvent or surfactant or cyclodextrin, thermodynamic from solid, drug concentration solubilised at maximum EGCG concentration): ~4700 µg/mL (≈ 12.8 mM) | solubility ([1]; aqueous with cosolvent or surfactant or cyclodextrin, thermodynamic from solid, drug concentration solubilised at maximum tannic acid concentration): ~12000 µg/mL (≈ 32.6 mM) | solubility ([1]; water, free solubility in water): < 1 µg/mL | curcumin uptake and transport through the cells ([2]; curcumin 250 microgram per ml in EGCG 25 mg per ml, versus diblock copolymer): much higher levels | curcumin passing through and entering the cells ([2]; diblock copolymer micellar solution, 250 micrograms/ml): small amount | drug uptake by pig skin [3]: essentially no drug uptake | drug loading at which drug precipitated out of film [4]: approximately 5 % w/w | stability of EGCG solutions of the drug [5]: stable for 24 hours | stability of tannic acid solutions of the drug [5]: stable for 24 hours | Visual appearance [6]: clear | Drug Concentration ([6]; 1 ml of water): 250 microgram/ml | Particulates present ([6]; under a microscope): no | drug release from PG:gallate paste [7]: relatively controlled release of the drug over 24 hours
